Legend:
[1] = system: Cavia porcellus; experiment: Tested for the inhibition of LTD4-induced broncho constriction in Guinea pig, injected intraduodenally at a dose of 25 mg/kg; assay type: functional; settings: route intraduodenal
[2] = system: Cavia porcellus; experiment: Inhibition of LTD4-induced broncho constriction in Guinea pig after intragastrical administration of a dose of 3 mg/kg; assay type: functional; settings: po, route intragastric
[3] = system: Cavia porcellus; experiment: Inhibition of LTD4-induced broncho constriction in Guinea pig after intragastrical administration of a dose of 25 mg/kg; assay type: functional; settings: po, route intragastric
[4] = system: Cavia porcellus; experiment: Tested for the inhibition of ovalbumin- induced bronchoconstriction in Guinea pig, injected intragastrically. Compound dose is 25 mg/kg; assay type: functional; settings: po, route intragastric
[5] = system: Cavia porcellus; experiment: Tested for the inhibition of LTD4-induced bronchoconstriction in Guinea pig, injected intraduodenally, dose of 3 mg/kg; assay type: functional; settings: route intraduodenal
[6] = system: Cavia porcellus; experiment: Tested for the inhibition of ovalbumin- induced bronchoconstriction in Guinea pig, injected intragastrically. Compound dose is 10 mg/kg; assay type: functional; settings: po, route intragastric
[7] = system: Cavia porcellus; experiment: In vitro LTD4-induced bronchoconstriction. i n isolated guinea pig trachea by injecting intraduodenally.; assay type: functional; settings: intraduodenal
[8] = system: Cavia porcellus; experiment: In vitro inhibition of ovalbumin-induced bronchoconstriction in isolated guinea pig trachea was determined after intraduodenal aministration; assay type: functional
[9] = system: Cavia porcellus; experiment: -log dissociation constant was determined In vitro in isolated guinea pig trachea after intraduodenal administration (before 10 min); assay type: ADME, organism-based; settings: in vivo, other
[10] = system: Cavia porcellus; experiment: Tested for the inhibition of ovalbumin- induced bronchoconstriction in Guinea pig, injected intraduodenally, dose of 25 mg/kg; assay type: functional; settings: route intraduodenal
[11] = system: Cavia porcellus; experiment: Tested for the inhibition of LTD4-induced bronchoconstriction in Guinea pig, injected intragastrically, dose of 25 mg/kg; assay type: functional; settings: po, route intragastric
[12] = system: Cavia porcellus; experiment: Inhibition of ovalbumin-induced broncho constriction in Guinea pig after intragastrical administration of a dose of 25 mg/kg; assay type: functional; settings: po, route intragastric
[13] = system: Cavia porcellus; experiment: Tested for the inhibition of LTD4-induced broncho constriction in Guinea pig, compound injected intragastrically at a dose of 25 mg/kg; assay type: functional; settings: po, route intragastric
[14] = system: Cavia porcellus; experiment: Inhibition of LTD4-induced broncho constriction in Guinea pig, compound injected intraduodenally at a dose of 25 mg/kg; assay type: functional; settings: route intraduodenal
[15] = system: Cavia porcellus; experiment: Tested for the inhibition of ovalbumin- induced bronchoconstriction in Guinea pig, injected intragastrically, dose of 10 mg/kg.; assay type: functional; settings: po, route intragastric
[16] = system: Cavia porcellus; experiment: Tested for the inhibition of ovalbumin- induced bronchoconstriction in Guinea pig, injected intraduodenally, dose is 25 mg/kg.; assay type: functional; settings: route intraduodenal
[17] = system: Cavia porcellus; experiment: Tested for the inhibition of ovalbumin- induced bronchoconstriction in Guinea pig, injected intragastrically, dose of 25 mg/kg; assay type: functional; settings: po, route intragastric
[18] = system: Cavia porcellus; experiment: Tested for the inhibition of LTD4-induced bronchoconstriction in Guinea pig, injected intragastrically, dose of 3 mg/kg.; assay type: functional; settings: po, route intragastric
[19] = system: Cavia porcellus; experiment: Tested for the inhibition of ovalbumin- induced bronchoconstriction in Guinea pig, injected intraduodenally, dose of 3 mg/kg.; assay type: functional; settings: route intraduodenal
[20] = system: Cavia porcellus; experiment: Tested for the inhibition of LTD4-induced bronchoconstriction in Guinea pig, injected intragastrically, dose of 10 mg/kg; assay type: functional; settings: po, route intragastric
[21] = system: Cavia porcellus; experiment: Tested for the inhibition of LTD4-induced bronchoconstriction in Guinea pig, injected intraduodenally, dose is 3 mg/kg; assay type: functional; settings: route intraduodenal
[22] = system: Cavia porcellus; experiment: Tested for the inhibition of LTD4-induced bronchoconstriction in Guinea pig, compound injected intragastrically, dose of 3 mg/kg; assay type: functional; settings: po, route intragastric
[23] = target: T1, Polyunsaturated fatty acid 5-lipoxygenase (Rattus norvegicus, UniProt P12527); experiment: Concentration for 50% inhibition of A-23187-stimulated radiolabeled 5-HETE and TXB2 synthesis by PMN 5-lipoxygenase; assay type: functional
T1 sequence (P12527 whole entry): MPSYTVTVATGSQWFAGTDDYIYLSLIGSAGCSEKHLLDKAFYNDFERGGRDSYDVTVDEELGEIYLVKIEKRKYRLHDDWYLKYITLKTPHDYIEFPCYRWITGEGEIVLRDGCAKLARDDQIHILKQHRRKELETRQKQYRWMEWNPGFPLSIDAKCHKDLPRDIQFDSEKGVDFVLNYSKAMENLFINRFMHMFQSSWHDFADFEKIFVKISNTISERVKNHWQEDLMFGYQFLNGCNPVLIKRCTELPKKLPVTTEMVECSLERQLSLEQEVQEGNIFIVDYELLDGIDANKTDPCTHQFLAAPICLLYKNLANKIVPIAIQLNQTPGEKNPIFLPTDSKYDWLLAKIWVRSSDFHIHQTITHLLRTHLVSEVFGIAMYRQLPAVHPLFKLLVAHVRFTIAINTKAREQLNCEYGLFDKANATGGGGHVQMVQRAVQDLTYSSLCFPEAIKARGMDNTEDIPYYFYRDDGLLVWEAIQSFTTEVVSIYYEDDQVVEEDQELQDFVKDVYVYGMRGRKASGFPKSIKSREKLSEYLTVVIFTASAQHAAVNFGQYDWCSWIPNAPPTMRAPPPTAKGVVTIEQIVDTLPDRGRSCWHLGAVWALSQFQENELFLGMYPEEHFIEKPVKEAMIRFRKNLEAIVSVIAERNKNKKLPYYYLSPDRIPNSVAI

[24] = system: Cavia porcellus; experiment: Tested for the inhibition of ovalbumin induced bronchoconstriction in Guinea pig, compound injected intraduodenally, dose is 25 mg/kg; assay type: functional; settings: route intraduodenal
[25] = system: Cavia porcellus; experiment: Dissociation constant was determined in vitro after intraduodenal administration in isolated guinea pig trachea; assay type: ADME, organism-based; settings: in vivo, other
[26] = system: Cavia porcellus; experiment: Tested for the inhibition of ovalbumin induced bronchoconstriction in Guinea pig, compound injected intraduodenally, dose is 10 mg/kg; assay type: functional; settings: route intraduodenal
[27] = system: Cavia porcellus; experiment: Tested for the inhibition of ovalbumin- induced bronchoconstriction in Guinea pig, compound injected intragastrically, dose of 25 mg/kg; assay type: functional; settings: po, route intragastric
[28] = system: Cavia porcellus; experiment: Tested for the inhibition of ovalbumin- induced bronchoconstriction in Guinea pig, compound injected intragastrically, dose of 3 mg/kg; assay type: functional; settings: po, route intragastric
[29] = system: Cavia porcellus; experiment: Inhibition of LTD4-induced broncho constriction in Guinea pig after intraduodenal administration of a dose of 3 mg/kg; assay type: functional
[30] = system: Cavia porcellus; experiment: In vitro Inhibition of ovalbumin-induced bronchoconstriction in isolated guinea pig trachea by injecting intraduodenally; assay type: functional; settings: intraduodenal
[31] = organism: Cavia porcellus; experiment: Dose of antagonist that produces 50% inhibition of ovalbumin-induced bronchoconstriction; assay type: functional
[32] = system: Cavia porcellus; experiment: In vitro inhibition of LTD4-induced bronchoconstriction in isolated guinea pig trachea by injecting intraduodenally; assay type: functional; settings: intraduodenal
[33] = system: Rattus norvegicus; experiment: Antiinflammatory effect was studied in a rat carrageenan paw edema (CE) assay at 50 mg/kg; assay type: functional
[34] = system: Cavia porcellus; experiment: Tested for the inhibition of LTD4-induced bronchoconstriction in Guinea pig, compound injected intragastrically, dose of 25 mg/kg; assay type: functional; settings: po, route intragastric
[35] = system: Cavia porcellus; experiment: In vitro inhibition of LTD4-induced bronchoconstriction into isolated guinea pig trachea by injecting intragastrically; assay type: functional; settings: po

## c1cc(OCc2ccc3ccccc3n2)cc(-c2nn[nH]n2)c1
[1]
  inhibition in vivo at 25 mg/kg: 90%
[2]
  inhibition in vivo at 3 mg/kg: 13%
[3]
  inhibition in vivo at 25 mg/kg: < 89%

## c1ccc2nc(COc3ccc(Cc4nnn[nH]4)cc3)ccc2c1
[4]
  inhibition in vivo at 25 mg/kg: 76%
[1]
  inhibition in vivo at 25 mg/kg: 88%
[5]
  inhibition in vivo at 3 mg/kg: -15%
[2]
  inhibition in vivo at 3 mg/kg: 4%
[3]
  inhibition in vivo at 25 mg/kg: 90%
[6]
  inhibition in vivo at 10 mg/kg: 6%

## COC(=O)CCC(=O)N(O)c1cccc(OCc2ccc3ccccc3n2)c1
[7]
  ED50: 3.3 mg/kg
[8]
  ED50: 27.4 mg/kg
[9]
  pKb: 6.5

## CS(=O)(=O)NC(=O)c1cccc(OCc2ccc3ccccc3n2)c1
[1]
  inhibition in vivo at 25 mg/kg: 90%
[2]
  inhibition in vivo at 3 mg/kg: 20%
[3]
  inhibition in vivo at 25 mg/kg: < 66%
[10]
  inhibition in vivo at 25 mg/kg: < 13%

## Cc1ccc(S(=O)(=O)NC(=O)CCc2cccc(OCc3ccc4ccccc4n3)c2)cc1
[11]
  inhibition in vivo at 25 mg/kg: < 66%
[1]
  inhibition in vivo at 25 mg/kg: 97%
[12]
  inhibition in vivo at 25 mg/kg: < 26%

## O=C(O)Cc1cccc(OCc2ccc3ccccc3n2)c1
[13]
  inhibition in vivo at 25 mg/kg: < 99%

## c1cc(Cc2nnn[nH]2)cc(OCc2nc3ccccc3s2)c1
[1]
  inhibition in vivo at 25 mg/kg: < 95%

## O=C(O)Cc1ccc(OCc2ccc3ccccc3n2)cc1
[3]
  inhibition in vivo at 25 mg/kg: < -4%

## COC(=O)Cc1cccc(OCc2nc3ccccc3s2)c1
[14]
  inhibition in vivo at 25 mg/kg: < 65%
[3]
  inhibition in vivo at 25 mg/kg: < 33%

## Cc1ccc(S(=O)(=O)NC(=O)Cc2cccc(OCc3nc4ccccc4s3)c2)cc1
[15]
  inhibition in vivo at 10 mg/kg: 42%
[16]
  inhibition in vivo at 25 mg/kg: 78%
[17]
  inhibition in vivo at 25 mg/kg: < 70%
[18]
  inhibition in vivo at 3 mg/kg: 80%
[19]
  inhibition in vivo at 3 mg/kg: 44%
[1]
  inhibition in vivo at 25 mg/kg: < 97%
[20]
  inhibition in vivo at 10 mg/kg: < 55%
[21]
  inhibition in vivo at 3 mg/kg: 83%

## CONC(=O)Cc1cccc(OCc2nc3ccccc3s2)c1
[3]
  inhibition in vivo at 25 mg/kg: < -4%

## CONC(=O)Cc1cccc(OCc2ccc3ccccc3n2)c1
[22]
  inhibition in vivo at 3 mg/kg: 2%
[23]
  IC50: 14.2 µM
[24]
  inhibition in vivo at 25 mg/kg: 56%
[25]
  pKb: 6.08
[26]
  inhibition in vivo at 10 mg/kg: 25%
[27]
  inhibition in vivo at 25 mg/kg: 83%
[28]
  inhibition in vivo at 3 mg/kg: 38%
[29]
  inhibition in vivo at 3 mg/kg: 44%
[30]
  ED50: 7.3 mg/kg
[31]
  ED50: 3.6 mg/kg
[32]
  ED50: 1.8 mg/kg
[33]
  inhibition in vivo at 50 mg/kg: < 41%
[34]
  inhibition in vivo at 25 mg/kg: 86%
[35]
  ED50: 7.9 mg/kg

## O=C(Cc1cccc(OCc2ccc3ccccc3n2)c1)NO
[1]
  inhibition in vivo at 25 mg/kg: < 14%
